For assay [1], the target named is T1, Aurora kinase A (Homo sapiens) (UniProt O14965).
T1 sequence (whole entry): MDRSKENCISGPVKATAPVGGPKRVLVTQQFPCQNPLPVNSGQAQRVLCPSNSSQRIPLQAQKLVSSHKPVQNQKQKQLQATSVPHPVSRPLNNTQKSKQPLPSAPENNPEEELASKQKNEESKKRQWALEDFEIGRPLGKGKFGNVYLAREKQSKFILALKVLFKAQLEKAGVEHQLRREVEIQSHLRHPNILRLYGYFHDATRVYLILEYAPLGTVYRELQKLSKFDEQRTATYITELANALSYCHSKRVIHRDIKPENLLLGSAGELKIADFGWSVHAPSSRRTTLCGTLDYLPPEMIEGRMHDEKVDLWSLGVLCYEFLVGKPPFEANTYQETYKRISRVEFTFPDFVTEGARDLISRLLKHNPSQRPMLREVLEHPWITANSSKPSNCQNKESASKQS
Kind of assay: Inhibition of Aurora kinase A assessed as inhibition of substrate phosphorylation using fluorescent peptide substrate up to 100 uM by microplate reader assay.

Assay [2] deals with Serine/threonine-protein kinase Chk2 (Homo sapiens, UniProt O96017).
Description: Inhibition of CHK2 assessed as inhibition of substrate phosphorylation using fluorescent peptide substrate by microplate reader assay
Assay [3] concerns the target Ribosomal protein S6 kinase alpha-3 (Homo sapiens, UniProt P51812).
Description: Inhibition of RSK2 assessed as inhibition of substrate phosphorylation using fluorescent peptide substrate by microplate reader assay

Each structure is given as a SMILES string. pIC50: −log10 of the molar value. Calls of active or inactive are those of the source. No rule for the calls is given here.

Ribosomal protein S6 kinase alpha-3, sequence (P51812 whole entry): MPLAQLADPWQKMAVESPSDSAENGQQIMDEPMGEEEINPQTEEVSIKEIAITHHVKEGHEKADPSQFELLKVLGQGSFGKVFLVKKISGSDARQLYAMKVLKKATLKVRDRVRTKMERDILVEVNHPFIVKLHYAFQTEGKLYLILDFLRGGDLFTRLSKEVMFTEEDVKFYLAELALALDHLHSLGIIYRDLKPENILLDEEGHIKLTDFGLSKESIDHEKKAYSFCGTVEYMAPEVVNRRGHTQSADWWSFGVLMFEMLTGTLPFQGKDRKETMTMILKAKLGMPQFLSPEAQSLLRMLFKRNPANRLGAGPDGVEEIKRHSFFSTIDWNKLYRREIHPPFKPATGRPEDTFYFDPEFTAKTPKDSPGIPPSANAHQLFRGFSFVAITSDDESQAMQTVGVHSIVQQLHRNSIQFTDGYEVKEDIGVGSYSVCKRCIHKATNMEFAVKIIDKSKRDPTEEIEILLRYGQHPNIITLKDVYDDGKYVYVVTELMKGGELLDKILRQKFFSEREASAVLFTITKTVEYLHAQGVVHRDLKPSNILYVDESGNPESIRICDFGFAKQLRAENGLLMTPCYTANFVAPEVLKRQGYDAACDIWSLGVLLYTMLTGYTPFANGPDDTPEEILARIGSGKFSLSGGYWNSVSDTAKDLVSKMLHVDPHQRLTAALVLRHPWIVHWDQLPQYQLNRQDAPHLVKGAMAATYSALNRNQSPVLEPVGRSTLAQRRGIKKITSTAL
Serine/threonine-protein kinase Chk2, sequence (O96017 whole entry): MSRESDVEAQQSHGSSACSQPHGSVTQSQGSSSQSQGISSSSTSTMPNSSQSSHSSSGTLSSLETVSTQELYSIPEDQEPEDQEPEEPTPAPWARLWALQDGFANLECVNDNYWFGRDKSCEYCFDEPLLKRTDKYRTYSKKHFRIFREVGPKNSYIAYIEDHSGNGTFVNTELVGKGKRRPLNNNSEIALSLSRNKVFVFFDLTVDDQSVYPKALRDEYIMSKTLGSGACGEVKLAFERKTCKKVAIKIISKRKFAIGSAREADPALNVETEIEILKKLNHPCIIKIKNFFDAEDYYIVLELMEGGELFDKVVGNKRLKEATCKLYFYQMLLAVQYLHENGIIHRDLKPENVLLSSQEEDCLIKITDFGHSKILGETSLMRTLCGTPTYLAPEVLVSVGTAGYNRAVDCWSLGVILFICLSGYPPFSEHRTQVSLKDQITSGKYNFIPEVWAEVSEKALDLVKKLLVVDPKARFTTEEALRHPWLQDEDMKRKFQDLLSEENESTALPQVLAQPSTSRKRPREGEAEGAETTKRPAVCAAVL

With `O=[N+]([O-])c1ccc(-c2cn3cc(Br)sc3n2)cc1`, the inhibition result in assay [1] is “inactive”.

Turning to `N=C(N)N/N=C/c1c(-c2cc(Cl)sc2Cl)nc2ccccn12`, the inhibition result in assay [1] was “inactive”. Also, the pIC50 in assay [2] was less than 4.70; in assay [3] it was less than 4.00.

For the compound `Fc1cc(F)c(-c2cn3ccsc3n2)cc1F`, in assay [1], the inhibition entry was “inactive”.

For the compound `Fc1cccc(F)c1-c1cn2ccsc2n1`, the inhibition entry in assay [1] was “inactive”.

Turning to `Clc1cc(-c2nc3ccccn3c2/C=N/NC2=NCCN2)c(Cl)s1`, the inhibition result in assay [1] was “inactive”. For the same compound, the negative-log IC50 (pIC50) is less than 4.70 in assay [2] and less than 4.00 in assay [3].

On to `COc1cc([N+](=O)[O-])c(OC)cc1-c1nc2sc3ccccc3n2c1C=O`, for which the inhibition result in assay [1] was “inactive”.

With `O=[N+]([O-])c1cccc(-c2cn3ccsc3n2)c1F`, the inhibition result in assay [1] is “inactive”.

With `COc1cc([N+](=O)[O-])c(OC)cc1-c1nc2sc(C)nn2c1C=O`, in assay [1], the inhibition result is “inactive”.

As to `O=Cc1c(-c2ccc(F)cc2)nc2sc(Cl)cn12`, the inhibition result in assay [1] is “inactive”.

On to `Cc1cn2cc(-c3ccc(F)cc3)nc2s1`, for which the inhibition result in assay [1] was “inactive”.

`Clc1cc(-c2nc3sc4ccccc4n3c2/C=N/NC2=NCCN2)c(Cl)s1`: the inhibition result in assay [1] was “inactive”. Also, the pIC50 in assay [2] and in assay [3] was less than 4.00 each time.

As for `N=C(N)N/N=C\c1c(-c2ccccc2)nc2sc(N)nn12`, the inhibition entry in assay [1] was “inactive”.

With `O=Cc1c(-c2c(F)cccc2F)nc2sccn12`, in assay [1], the inhibition entry was “inactive”.

On to `O=Cc1c(-c2ccc(F)cc2)nc2sccn12`, for which, in assay [1], the inhibition entry was “inactive”.

On to `O=Cc1c(-c2ccc(F)c([N+](=O)[O-])c2)nc2sc(Cl)cn12`, for which, in assay [1], the inhibition result is “inactive”.

As for `O=Cc1c(-c2ccc([N+](=O)[O-])cc2)nc2sc(F)cn12`, the inhibition entry in assay [1] was “inactive”.

With `O=Cc1c(-c2cc(Cl)sc2Cl)nc2ccccn12`, the inhibition result in assay [1] was “inactive”.

`Cc1cn2c(C=O)c(-c3ccc(F)c([N+](=O)[O-])c3)nc2s1`: the inhibition entry in assay [1] was “inactive”.

For the compound `COc1cc([N+](=O)[O-])c(OC)cc1-c1cn2ccccc2n1`, the inhibition entry in assay [1] was “inactive”.

For `O=Cc1c(-c2cc(Cl)sc2Cl)nc2sc3ccccc3n12`, in assay [1], the inhibition result was “inactive”.

With `N#Cc1ccc(-c2nc3sc(Cl)cn3c2C=O)cc1`, in assay [1], the inhibition entry is “inactive”.

As to `Fc1ccccc1-c1cn2ccsc2n1`, in assay [1], the inhibition entry was “inactive”.

On to `Cc1cn2c(C=O)c(-c3ccc(F)cc3)nc2s1`, for which the inhibition result in assay [1] is “inactive”.

`Cc1nn2c(/C=N/NC(=N)N)c(-c3cc(Cl)sc3Cl)nc2s1`: the inhibition entry in assay [1] is “inactive”. For the same compound, the values for the negative logarithm of the IC50 (pIC50) in assay [2] and in assay [3] were less than 4.70 and less than 4.00, respectively.

With `O=Cc1c(-c2ccc(F)c([N+](=O)[O-])c2)nc2sccn12`, the inhibition result in assay [1] was “inactive”.

`N=C(N)N/N=C\c1c(-c2ccccc2F)nc2sccn12`: in assay [1], the inhibition result is “inactive”. The pIC50 in assay [2] and in assay [3] was less than 4.00 each time.

In the case of `O=[N+]([O-])c1cc(-c2cn3cc(Cl)sc3n2)ccc1F`, the inhibition result in assay [1] is “inactive”.

Take `N=C(N)N/N=C\c1c(-c2cccc(C(F)(F)F)c2)nc2sccn12`: the inhibition entry in assay [1] is “inactive”. Also, the pIC50 in assay [2] and in assay [3] was less than 4.00 throughout.

As to `N=C(N)N/N=C\c1c(-c2cccc([N+](=O)[O-])c2F)nc2sccn12`, the inhibition result in assay [1] was “inactive”. Further, the pIC50 in assay [2] and in assay [3] was less than 4.00 each time.

Regarding `COc1cc([N+](=O)[O-])c(OC)cc1-c1nc2ccccn2c1C=O`, the inhibition entry in assay [1] is “inactive”.

Regarding `Cc1sc2nc(-c3cc([N+](=O)[O-])c(Cl)cc3Cl)c(/C=N/NC(=N)N)n2c1C`, the negative logarithm of the IC50 (pIC50) was less than 4.00 in assay [2] and 4.01 in assay [3].

For the compound `Cc1nn2cc(-c3cc(Cl)sc3Cl)nc2s1`, in assay [1], the inhibition entry was “inactive”.

`COc1cc([N+](=O)[O-])c(OC)cc1-c1cn2c(n1)sc1ccccc12`: the inhibition entry in assay [1] was “inactive”.

On to `Fc1ccc(-c2cn3ccsc3n2)cc1F`, for which the inhibition entry in assay [1] is “inactive”.

For the compound `COc1cc([N+](=O)[O-])c(OC)cc1-c1cn2nc(C)sc2n1`, in assay [1], the inhibition entry is “inactive”.

Regarding `Cc1nn2c(/C=N/NC(=N)N)c(-c3ccc(Cl)c([N+](=O)[O-])c3)nc2s1`, the pIC50 in assay [2] was 4.11; in assay [3], 4.03.

Take `N=C(N)N/N=C\c1c(-c2c(F)cccc2F)nc2sccn12`: in assay [1], the inhibition entry was “inactive”. The pIC50 in assay [2] and in assay [3] was less than 4.00 throughout.

For the compound `N=C(N)N/N=C\c1c(-c2ccc(F)c(F)c2)nc2sccn12`, in assay [1], the inhibition result was “inactive”. Also, the negative logarithm of the IC50 (pIC50) in assay [2] and in assay [3] was less than 4.00 each time.

Consider `O=[N+]([O-])c1ccc(-c2cn3cc(F)sc3n2)cc1`, for which, in assay [1], the inhibition entry was “inactive”.

With `Cc1cn2cc(-c3ccc(F)c([N+](=O)[O-])c3)nc2s1`, the inhibition entry in assay [1] is “inactive”.

Consider `N#Cc1ccc(-c2cn3cc(Cl)sc3n2)cc1`, for which the inhibition result in assay [1] is “inactive”.

For `Fc1ccc(-c2cn3cc(Cl)sc3n2)cc1`, in assay [1], the inhibition entry is “inactive”.

Take `O=Cc1c(-c2ccc(F)c(F)c2)nc2sccn12`: the inhibition result in assay [1] was “inactive”.

Consider `O=[N+]([O-])c1cc(-c2cn3ccsc3n2)ccc1F`, for which the inhibition entry in assay [1] is “inactive”.

As for `O=[N+]([O-])c1cc(-c2cn3ccsc3n2)ccc1Br`, the inhibition entry in assay [1] was “inactive”.

With `Cc1nn2c(C=O)c(-c3cc(Cl)sc3Cl)nc2s1`, in assay [1], the inhibition result is “inactive”.

`Clc1cc(-c2cn3cc(Cl)sc3n2)c(Cl)s1`: the inhibition result in assay [1] was “inactive”.

With `Nc1nn2c(C=O)c(-c3ccccc3)nc2s1`, the inhibition result in assay [1] was “inactive”.

Regarding `O=Cc1c(-c2ccc([N+](=O)[O-])cc2)nc2sc(Br)cn12`, the inhibition result in assay [1] was “inactive”.

Turning to `Clc1cc(-c2cn3ccccc3n2)c(Cl)s1`, in assay [1], the inhibition entry was “inactive”.

Turning to `N=C(N)N/N=C/c1c(-c2ccccc2)nc2sc(Cl)cn12`, the inhibition result in assay [1] was “inactive”. For the same compound, the pIC50 in assay [2] and in assay [3] was less than 4.00 throughout.

For `O=Cc1c(-c2cc(F)c(F)cc2F)nc2sccn12`, in assay [1], the inhibition result was “inactive”.

As for `Clc1cc(-c2cn3c(n2)sc2ccccc23)c(Cl)s1`, in assay [1], the inhibition entry is “inactive”.

Turning to `O=Cc1c(-c2ccccc2F)nc2sccn12`, in assay [1], the inhibition result is “inactive”.

As to `O=Cc1c(-c2cccc([N+](=O)[O-])c2F)nc2sccn12`, in assay [1], the inhibition entry was “inactive”.

In the case of `Cc1nn2c(/C=N/NC3=NCCN3)c(-c3ccc(Cl)c([N+](=O)[O-])c3)nc2s1`, the inhibition entry in assay [1] was “inactive”. The pIC50 in assay [2] was less than 4.70; in assay [3], less than 4.00.

`O=Cc1c(-c2cc(Cl)sc2Cl)nc2sc(Cl)cn12`: the inhibition entry in assay [1] was “inactive”.

With `COc1cc([N+](=O)[O-])c(OC)cc1-c1nc2sc(C)nn2c1/C=N\NC(=N)N`, the inhibition entry in assay [1] is “inactive”. Also, the results for the pIC50 in assay [2] and in assay [3] were less than 4.70 and less than 4.00, respectively.

Turning to `O=Cc1c(-c2ccc(Br)c([N+](=O)[O-])c2)nc2sccn12`, the inhibition result in assay [1] is “inactive”.

Turning to `Clc1cc(-c2nc3sc(Cl)cn3c2/C=N/NC2=NCCN2)c(Cl)s1`, the inhibition result in assay [1] is “inactive”. The negative logarithm of the IC50 (pIC50) in assay [2] is less than 4.70; in assay [3] it was less than 4.00.

The values above are taken from ChEMBL document CHEMBL1909514, “Imidazo[2,1-b]thiazole guanylhydrazones as RSK2 inhibitors” (Eur J Med Chem, 2011).
